Data set [1] concerns human embryonic stem cell derived neural stem cells (NSCs). The data set is described as follows: Neural stem cell proliferation assay (neurogenesis assay, ATP levels by CellTiterGlo). In kind it is cell-based. Particulars: compound concentration at which 150% activity of control (100%) is reached, NSC proliferation by ATP (CellTiterGlo) after 4 days incubation, dose response 8 μM to 8 nM. As for the experimental part:
Neural Stem Cell Proliferation Assay
Neurogenic properties of small molecules are determined based on the proliferation of human embryonic stem cell derived neural stem cells (NSCs) which were derived via a dual smad inhibition as previously described (Chambers, S. M., et al., Highly efficient neural conversion of human ES and iPS cells by dual inhibition of SMAD signaling, Nature biotechnology, 2009. 27(3): p. 275-80.)
Compounds respond is measured by the increase in cells based on ATP levels (Promega:CellTiterGlo®) after an incubation period of 4 days.
NSCs are thawed and expanded over 3 passages. On the 14th day, NSCs are seeded in Polyornithin/Laminin coated 384 well plates at a cell density of 21,000 cells/cm^2 in a media volume of 38 μl.
4 hours after cell seeding, compound solutions are added at a volume of 2 μl. Stock solutions of the compounds (water, 5% DMSO) are diluted to obtain a dose response (11 points, dilution factor is 2), ranging from 8 μM to 8 nM. Controls are run to consistently determine the neurogenic properties of the cells: • Negative (neutral) control is cell culture Media (final DMSO concentration: 0.25%). • Positive controls are: • 1. cell culture Media+100 ng/ml FGF2 (final DMSO concentration: 0.1%) • 2. cell culture Media+20 ng/ml EGF (final DMSO concentration: 0.1%) • 3. cell culture Media+100 ng/ml Wnt3a (final DMSO concentration: 0.1%)
After 4 days incubation at 37° C., 5% CO2, the amount of ATP per well is quantified. The ATP concentration is proportional to the cell number. ATP is quantified by using the Promega CellTiterGlo® kit. The CellTiterGlo® reagents contain a cell lysis buffer, a thermo stable luciferase (UltraGlo™ recombinant luciferase), magnesium and luciferin. Luciferin reacts with ATP producing oxyluciferin, AMP and light. The luminescence signal is proportional to the ATP content.
The value of negative (neutral) control is determined for each assay plate by taking the average of 16 negative control wells. The neurogenic compound response is calculated for each compound as (compound/Negative Control)*100.
The values of EC150 from the dose response curve are determined for each test compound. The EC150 is the compound concentration at which 150% activity of control (100%) is reached.
For orientation: Cellular ATP, detected with luciferase, serves as a proxy for viable cell number.

The mark [2] stands for this setting: Homo sapiens, Neural stem cell, 96 h.

With “5-Cyano-7-3,4-difluorophenyl)-1H-indole-2-carboxamide [Example 33]”, the EC (150% of control) in data set [1] was found to be 0.056 µM.
The melting point is the temperature, or range, at which the solid turns liquid. The molecule `Cc1c(C(N)=O)n(C)c2c(-c3ccc(Cl)cc3)cc(C#N)cc12` [Example 1, 7-(4-Chloro-phenyl)-5-cyano-1,3-dimethylindole-2-carboxamide] had a melting point of 237 °C. The molecule further had an EC (150% of control) in data set [1] (setting [2]) of 0.14 µM.
Taken in the same sequence, the figures for `Cn1c(C(N)=O)cc2cc(F)cc(-c3ccc(F)cc3)c21` [Example 2, 5-Fluoro-7-(4-fluoro-phenyl)-1-methylindole-2-carboxamide] were 156 °C and 1.4 µM.
For `NC(=O)c1cc2cc(F)cc(-c3ccc(F)cc3)c2[nH]1` [Example 3, 5-Fluoro-7-(4-fluoro-phenyl)-1H-indole-2-carboxamide], in that order: 162 °C and 0.18 µM.
For `Cc1c(C(N)=O)n(C)c2c(-c3ccc(F)cc3)cc(C#N)cc12` [Example 4, 5-Cyano-7-(4-fluorophenyl)-1,3-dimethylindole-2-carboxamide], in that order: 216 °C and 0.21 µM.
In turn, `Cc1c(C(N)=O)n(C)c2c(-c3ccc(F)c(F)c3)cc(C#N)cc12` [Example 5, 5-Cyano-7-(3,4-difluorophenyl)-1,3-dimethylindole-2-carboxamide] had a melting point of 212 °C. For the same molecule, in data set [1] (setting [2]), the EC (150% of control) turned out to be 0.35 µM.
Taken in the same sequence, the figures for `Cc1c(C(N)=O)n(C)c2c(-c3ccc(C(F)(F)F)cc3)cc(C#N)cc12` [Example 6, 5-Cyano-1,3-dimethyl-7-[4-(trifluoromethyl)-phenyl]-indole-2-carboxamide] were 195 °C and 2.7 µM.
In turn, `Cc1c(C(N)=O)[nH]c2c(-c3ccc(F)c(F)c3)cc(C#N)cc12` [Example 7, 5-Cyano-7-(3,4-difluorophenyl)-3-methyl-1H-indole-2-carboxamide] gave a melting point of 222 °C. The EC (150% of control) in data set [1] (setting [2]) is 0.3 µM.
Consider `Cc1c(C(N)=O)[nH]c2c(-c3ccc(C(F)(F)F)cc3)cc(C#N)cc12` [Example 8, 5-Cyano-3-methyl-7-[4-(trifluoromethyl)phenyl]-1H-indole-2-carboxamide], for which the melting point worked out at 243 °C. The same molecule came in with an EC (150% of control) in data set [1] (setting [2]) of 0.4 µM.
In turn, `Cc1c(C(N)=O)[nH]c2c(-c3ccc(F)cc3)cc(C#N)cc12` [Example 9, 5-Cyano-7-(4-fluorophenyl)-3-methyl-1H-indole-2-carboxamide] returned a melting point of 268 °C. In data set [1] (setting [2]), this molecule returned an EC (150% of control) of 0.22 µM.
For `Cc1c(C(N)=O)[nH]c2c(-c3ccc(Cl)cc3)cc(C#N)cc12` [Example 10, 7-(4-Chlorophenyl)-5-cyano-3-methyl-1H-indole-2-carboxamide], in that order: 291 °C and 0.21 µM.
With `Cc1c(C(N)=O)[nH]c2c(-c3ccc(F)cc3)cc(Cl)cc12` [Example 11, 5-Chloro-7-(4-fluorophenyl)-3-methyl-1H-indole-2-carboxamide], the melting point came out at 173 °C. For the same molecule, the EC (150% of control) in data set [1] (setting [2]) came to 0.22 µM.
For `Cc1c(C(N)=O)[nH]c2c(-c3ccc(Cl)cc3)cc(Cl)cc12` [Example 12, 5-Chloro-7-(4-chlorophenyl)-3-methyl-1H-indole-2-carboxamide], in that order: 252 °C and 0.31 µM.
As to `Cc1c(C(N)=O)n(C)c2c(-c3ccc(F)cc3)cc(Cl)cc12` [Example 13, 5-Chloro-7-(4-fluorophenyl)-1,3-dimethylindole-2-carboxamide], the melting point was found to be 178 °C. This molecule also gave an EC (150% of control) in data set [1] (setting [2]) of 1.64 µM.
For `Cc1c(C(N)=O)n(C)c2c(-c3ccc(Cl)cc3)cc(Cl)cc12` [Example 14, 5-Chloro-7-(4-chlorophenyl)-1,3-dimethylindole-2-carboxamide], in that order: 195 °C and 0.84 µM.
Taken in the same sequence, the figures for `Cc1c(C(N)=O)[nH]c2c(-c3ccc(F)c(F)c3)cc(Cl)cc12` [Example 15, 5-Chloro-7-(3,4-difluorophenyl)-3-methyl-1H-indole-2-carboxamide] were 206 °C and 0.64 µM.
The molecule `Cc1c(C(N)=O)[nH]c2c(-c3ccc(C(F)(F)F)cc3)cc(Cl)cc12` [Example 16, 5-Chloro-3-methyl-7-[4-(trifluoromethyl)-phenyl]-1H-indole-2-carboxamide] displayed a melting point of 184 °C. In data set [1] (setting [2]), this molecule yielded an EC (150% of control) of 0.75 µM.
`Cc1c(C(N)=O)n(C)c2c(-c3ccc(F)c(F)c3)cc(Cl)cc12` [Example 17, 5-Chloro-7-(3,4-difluorophenyl)-1,3-dimethylindole-2-carboxamide] returned a melting point of 196 °C. For the same molecule, the EC (150% of control) in data set [1] (setting [2]) amounted to 3.3 µM.
In turn, `Cc1c(C(N)=O)n(C)c2c(-c3ccc(C(F)(F)F)cc3)cc(Cl)cc12` [Example 18, 5-Chloro-1,3-dimethyl-7-[4-(trifluoromethyl)phenyl]indole-2-carboxamide] registered a melting point of 206 °C. The EC (150% of control) in data set [1] (setting [2]) turned out to be 2.8 µM.
For `Cc1c(C(N)=O)[nH]c2c(-c3ccc(OC(F)(F)F)cc3)cc(C#N)cc12` [Example 19, 5-Cyano-3-methyl-7-[4-(trifluoromethoxy)-phenyl]-1H-indole-2-carboxamide], the melting point is 207 °C. In data set [1] (setting [2]), this molecule gave an EC (150% of control) of 1.13 µM.
For `Cc1c(C(N)=O)[nH]c2c(-c3ccc(C#N)cc3)cc(C#N)cc12` [Example 20, 5-Cyano-7-(4-cyanophenyl)-3-methyl-1H-indole-2-carboxamide], in that order: 294 °C and 0.24 µM.
For `Cc1c(C(N)=O)n(C)c2c(-c3ccc(OC(F)(F)F)cc3)cc(C#N)cc12` [Example 21, 5-Cyano-1,3-dimethyl-7-[4-(trifluoromethoxy)phenyl]indole-2-carboxamide], in that order: 106 °C and 0.43 µM.
`Cc1c(C(N)=O)n(C)c2c(-c3ccc(C#N)cc3)cc(C#N)cc12` [Example 22, 5-Cyano-7-(4-cyanophenyl)-1,3-dimethylindole-2-carboxamide] gave a melting point of 226 °C. The same molecule came in with an EC (150% of control) in data set [1] (setting [2]) of 0.6 µM.
Taken in the same sequence, the figures for `Cc1c(C(N)=O)[nH]c2c(-c3ccc(C#N)cc3)cc(Cl)cc12` [Example 23] were 267 °C and 0.28 µM.
`Cc1c(C(N)=O)[nH]c2c(-c3ccc(OC(F)(F)F)cc3)cc(Cl)cc12` [Example 24, 5-Chloro-3-methyl-7-[4-(trifluoromethoxy)phenyl]-1H-indole-2-carboxamide] gave a melting point of 149 °C. For the same molecule, the EC (150% of control) in data set [1] (setting [2]) turned out to be 1.32 µM.
For `Cc1c(C(N)=O)[nH]c2c(-c3ccc(F)cc3F)cc(Cl)cc12` [Example 25, 5-Chloro-7-(2,4-difluorophenyl)-3-methyl-1H-indole-2-carboxamide], in that order: 196 °C and 0.21 µM.
For `Cc1c(C(N)=O)[nH]c2c(-c3ccc(Cl)cc3Cl)cc(Cl)cc12` [Example 26, 5-Chloro-7-(2,4-dichlorophenyl)-3-methyl-1H-indole-2-carboxamide], in that order: 195 °C and 0.33 µM.
`Cc1c(C(N)=O)n(C)c2c(-c3ccc(OC(F)(F)F)cc3)cc(Cl)cc12` [Example 27, 5-Chloro-1,3-dimethyl-7-[4-(trifluoromethoxy)-phenyl]indole-2-carboxamide] returned a melting point of 181 °C. Moreover, the EC (150% of control) in data set [1] (setting [2]) is 3.67 µM.
For `Cc1c(C(N)=O)n(C)c2c(-c3ccc(C#N)cc3)cc(Cl)cc12` [Example 28, 5-Chloro-7-(4-cyanophenyl)-1,3-dimethylindole-2-carboxamide], in that order: 199 °C and 1.06 µM.
Taken in the same sequence, the figures for `Cc1c(C(N)=O)n(C)c2c(-c3ccc(F)cc3F)cc(Cl)cc12` [Example 29, 5-Chloro-7-(2,4-difluorophenyl)-1,3-dimethylindole-2-carboxamide] were 220 °C and 0.23 µM.
As for `Cc1c(C(N)=O)n(C)c2c(-c3ccc(Cl)cc3Cl)cc(Cl)cc12` [Example 30, 5-Chloro-7-(2,4-dichlorophenyl)-1,3-dimethylindole-2-carboxamide], the melting point amounted to 221 °C. In addition, the EC (150% of control) in data set [1] (setting [2]) is 0.93 µM.

(Values after patent US9464049B2, “Indole-carboxamides” (Hoffmann-La Roche Inc., priority 2013, dated 2016).)
